Test results reported in patent US4122179A, “Acid addition salts of vincamine and apovincamine” (priority 1976, dated 1978).
Counter-ions that a name gives are not always drawn.

Experiments:
[1] = system: vertebral arteria; assay: Cerebral vasodilating activity: hematic flow at the vertebral arteria after i.v. administration; type: in vivo; details: i.v. (femoral vein), 5 mg/kg of vincamine/apovincamine, anesthetized dog, 4 animals per compound
Protocol: (§1) For the compounds of the present invention a number of pharmacological and pharmacokinetic tests have been carried out. […] As regards the pharmacological and pharmacodynamic activity, it has been studied on the percent variations of the hematic flow, as recorded at the vertebral arteria in the dog after administration of the tested compounds. As regards the pharmacokinetic tests, the compounds were administered per oral route to the Wistar rat, and the hematic levels at different times from the administration were measured.
The cerebral vasodilating activity was studied in the anestetized dog, by measuring, by means of Statham periarterial electromagnetic flowmeters, the hematic flow at the level of the […] which, in such animal species, constitutes the greatest blood supply to the brain.
The resuls are reported in the TABLE 2 (last column) as the percent variations of the flow measured at the level of the ledt vertebral arteria after the i.v. administration of the several compounds to be tested to groups of 4 animals for each compound. The results also confirm that the compounds of the invention are all endowed with a vasodilating activity at the level of the cerebral circulus, such an action being, for some compounds, much more remarkable than that of vincamine and apovincamine.

[2] = Hematic levels at different times after oral administration (absorption); type: in vivo, Wistar rat; details: 100 mg/kg expressed as vincamine/apovincamine, 5% carboxymethyl cellulose suspension; for Tmax: rat, blood, po, read-out: Max. conc. time (converted)
Protocol: as §1
For the evaluation of the absorption, all the compounds have been orally administered at the dosage of 100 mg/kg, expressed as vincamine and apovincamine, in form of a suspension in a 5% carboxymethyl cellulose solution.
The absorption was determined by evaulating the hematic levels at the following times (minutes) : 0, 30, 120, 240, 480, 10 hours and 12 hours, in order also to assess the time from the administration (max conc.time) the maximum absorption occurred.
The vincamine and apovincamine concentrations were assessed by chromatographic method.
For the evaluation of the prolonged action of the salts and of the adducts of vincamine and apovincamine the following criterium was adopted; as derivatives having a long-acting effect, there are considered those which, 120 minutes after the administration, show hematic levels higher than those obtained with vincamine and apovincamine.

[3] = LD50 / acute toxicity, intraperitoneal route; type: in vivo; details: i.p.; for Toxicity (Gleason): Gleason class in words, classes not defined
[4] = Solubility; type: physicochemical; details: qualitative; for solubility in alcohol: alcohol (ethyl alcohol)

Molecule | LD50 [3] | Toxicity (Gleason) [3] | solubility in alcohol [4] | solubility in water [4] | % increase (percent variation of hematic flow, left vertebral arteria) ([1]; 5 mg/kg) | Max. conc. time ([2]; 100 mg/kg) | other results
glucose-6-phosphate disodium [Example 1.d] | 2000 mg/kg | negligible | – | – | – | – | % increase (percent variation of hematic flow, left vertebral arteria) ([1]; disodium, 5 mg/kg): 29.3%; Max. conc. time ([2]; disodium, 100 mg/kg): 120 min
Apovincamine alginate [Example 23.b] | 750 mg/kg | modest | insoluble | insoluble | – | – | % increase (percent variation of hematic flow, left vertebral arteria) [1]: 38.0%; Max. conc. time [2]: 60 min
Vincamine pectin (1:1 adduct) [Example 30.a] | 2000 mg/kg | negligible | – | insoluble | – | – | % increase (percent variation of hematic flow, left vertebral arteria) [1]: 40.0%; solubility in the common (organic) solvents [4]: insoluble; Max. conc. time [2]: 20 min
CC[C@]12CCCN3CCc4c(n(c5ccccc45)[C@@](O)(C(=O)OC)C1)[C@@H]32 [Example 16.a, Vincamine acetylsalicylate] | 900 mg/kg | modest | – | – | 31.7% | 20 min | solubility in the common (organic) solvents [4]: poorly soluble
CC[C@@]12C=C(C(=O)OC)n3c4c(c5ccccc53)CCN(CCC1)[C@H]42 [Example 14.b, Apovincamine L(+)-O,O-dibenzoyltartrate] | 1500 mg/kg | light | soluble | – | 31.0% | 120 min | –
CC[C@]12CCCN3CCc4c(n(c5ccccc45)[C@@](O)(C(=O)OC)C1)[C@@H]32 [Example 5.a, Vincamine 2,6-dihydroxybenzoate] | 550 mg/kg | modest | insoluble | insoluble | 23.6% | 120 min | –
CC[C@@]12C=C(C(=O)OC)n3c4c(c5ccccc53)CCN(CCC1)[C@H]42 [Example 5.b, Apovincamine 2,6-dihydroxybenzoate] | 750 mg/kg | modest | poorly soluble | insoluble | 25.4% | 120 min | –
CC[C@@]12C=C(C(=O)OC)n3c4c(c5ccccc53)CCN(CCC1)[C@H]42 [Example 25.b, Apovincamine (D,L)-mandelate] | – | – | soluble | insoluble | 34.5% | 120 min | –
CC[C@]12CCCN3CCc4c(n(c5ccccc45)[C@@](O)(C(=O)OC)C1)[C@@H]32 [Example 20.a, Vincamine theophylline-7-acetate] | 700 mg/kg | modest | soluble | insoluble | 24.5% | 60 min | solubility in the common (organic) solvents [4]: insoluble
CC[C@]12CCCN3CCc4c(n(c5ccccc45)[C@@](O)(C(=O)OC)C1)[C@@H]32 [Example 4.c, glucose-6-phosphate acid salt] | 800 mg/kg | modest | – | – | 28.2% | 240 min | –
CC[C@]12CCCN3CCc4c(n(c5ccccc45)[C@@](O)(C(=O)OC)C1)[C@@H]32 [Example 19.a, Vincamine p-chlorophenoxyacetate] | 750 mg/kg | modest | soluble | insoluble | 22.0% | 480 min | solubility in the common (organic) solvents [4]: insoluble
CC[C@]12CCCN3CCc4c(n(c5ccccc45)[C@@](O)(C(=O)OC)C1)[C@@H]32 [Example 15.a, nicotinate] | 900 mg/kg | modest | – | – | 21.9% | 60 min | –
Apovincamine-pectin (2:1 adduct) [Example 31.b] | 900 mg/kg | light | poorly soluble | insoluble | – | – | % increase (percent variation of hematic flow, left vertebral arteria) [1]: 28.2%; Max. conc. time [2]: 480 min
CC[C@@]12C=C(C(=O)OC)n3c4c(c5ccccc53)CCN(CCC1)[C@H]42 [Apovincamine, apovincamine] | 2000 mg/kg | negligible | – | – | 25.6% | 60 min | –
CC[C@]12CCC[N+]3(C)CCc4c(n(c5ccccc45)[C@@](O)(C(=O)OC)C1)[C@H]23 (stereo partly shown) [Example 17.a, Vincamine methylsulfate] | – | – | soluble | soluble | – | – | % increase (percent variation of hematic flow, left vertebral arteria) [1]: 28.4%; Tmax ([2]; 100 mg/kg): 1 h
Apovincamine tannate [Example 24.b] | – | – | – | insoluble | – | – | % increase (percent variation of hematic flow, left vertebral arteria) [1]: 29.8%; Max. conc. time [2]: 480 min
CC[C@@]12C=C(C(=O)OC)n3c4c(c5ccccc53)CCN(CCC1)[C@H]42 [Example 20.b, Apovincamine theophylline-7-acetate] | – | – | – | soluble | 27.2% | 120 min | –
CC[C@@]12C=C(C(=O)OC)n3c4c(c5ccccc53)CC[N+](C)(CCC1)[C@H]42 (stereo partly shown) [Example 17.b, Apovincamine methylsulfate] | – | – | poorly soluble | soluble | – | – | % increase (percent variation of hematic flow, left vertebral arteria) [1]: 29.7%; Tmax ([2]; 100 mg/kg): 1 h
CC[C@]12CCCN3CCc4c(n(c5ccccc45)[C@@](O)(C(=O)OC)C1)[C@@H]32 [Vincamine HCl, reference compound] | – | – | – | – | – | – | % increase (percent variation of hematic flow, left vertebral arteria) ([1]; HCl, 5 mg/kg): 24.1%; Max. conc. time ([2]; HCl, 100 mg/kg): 20 min; Toxicity (Gleason) ([3]; HCl): modest; LD50 ([3]; HCl): 800 mg/kg
glucose-6-phosphate [Example 3.c] | 1000 mg/kg | light | – | – | 28.4% | 240 min | –
CC[C@@]12C=C(C(=O)OC)n3c4c(c5ccccc53)CCN(CCC1)[C@H]42 [Example 13.b, Apovincamine D(+)-camphorsulfonate] | – | – | soluble | soluble | 37.4% | 120 min | –
glucose-6-phosphate disodium [Example 1.c] | 2000 mg/kg | negligible | – | – | – | – | % increase (percent variation of hematic flow, left vertebral arteria) ([1]; disodium, 5 mg/kg): 26.3%; Max. conc. time ([2]; disodium, 100 mg/kg): 480 min
CC[C@@]12C=C(C(=O)OC)n3c4c(c5ccccc53)CCN(CCC1)[C@H]42 [Example 12.b, Apovincamine furoate] | – | – | soluble | insoluble | 24.0% | 240 min | –
glucose-6-phosphate [Example 3.d] | 900 mg/kg | modest | – | – | 28.8% | 120 min | –
